pEC50: −log10 of the molar value.
Target: human α7 nAChR (Homo sapiens (Human), UniProt P36544)
Experiment: Automated patch-clamp electrophysiology functional assay (Assay A)
Assay type: cell-based
Conditions: IonFlux HT whole-cell population patch, HEK cells expressing human α7/RIC-3, 40 μM acetylcholine
Experimental: The α7 nAChR positive allosteric modulator (PAM) activity of the present compounds may be tested using assays known in the art. The α7 nAChR PAMs described herein have activities in an automated patch-clamp electrophysiology functional assay as described in the examples. The assay was performed using the IonFlux HT in a whole-cell, population patch configuration. See Golden et al. Assay Drug Dev. Technol. (2011) 9:608-619. The compounds were assessed for their ability to modulate the function of the human α7 nAChR stably expressed in a HEK cell line both in the presence, and in the absence of the natural α7 agonist acetylcholine. By performing a series of such measurements at different concentrations, the effective concentration of the α7 nAChR PAMs (EC50) was determined. See Spencer et al. Assay Drug Dev. Technol. (2012) 10:313-324.
Direct activation of α7 (agonism), and potentiation of acetylcholine-evoked α7 currents was determined as follows:
Automated Patch-Clamp Electrophysiology Functional Assay (Assay A)
Automated patch-clamp electrophysiology was performed using the IonFluxHT (Fluxion Biosciences Inc., San Francisco, CA) in the whole-cell, population patch configuration. Test compounds were assessed for their ability to modulate the function of the α7 nicotinic acetylcholine receptor both in the presence, and in the absence of the natural α7 agonist acetylcholine. A HEK cell line stably expressing both human RIC-3 and human α7 (PrecisION hnAChR α7/RIC-3, Eurofins Pharma, St. Charles, MO) was cultured in 175 cm^2 triple-layer tissue culture flasks to no more than 90% confluency in DMEM/F-12 growth media supplemented with 10% heat-inactivated fetal bovine serum, 1% non-essential amino acids, 0.625 μg/mL Puromycin, and 400 μg/mL Geneticin. Immediately prior to assay, cells were detached by first aspirating growth media, rinsing with Dulbecco's phosphate buffered saline, and then adding 10 mL of Accutase (Innovative Cell Technologies, San Diego, CA) to the flask and then incubating at 37° C. for 5 minutes. Detached cells were then recovered by the addition of 40 mL of CHO-serum-free media supplemented with 25 mM HEPES, and rocked gently in a 50 mL conical tube for 20 minutes prior to patch-clamp assay. After recovery, cells were pelleted by centrifugation at 1,000 RPM for 1 minute in a compact bench top centrifuge; recovery media was aspirated and cells were resuspended in external recording solution (150 mM NaCl, 5 mM KCl, 2 mM CaCl2), 1 mM MgCl2, 10 mM HEPES, 12 mM dextrose) to a density of 5.0×10^6 cells/mL. The cell suspension was added to the cell inlet wells on an IonFlux HT population patch plate which had previously been rinsed and primed with deionized H2O. Test compounds were serially diluted in DMSO and then resuspended to the final test concentration in external recording solution, with, or without 40 μM acetylcholine added to the external recording solution; test compounds were then transferred to the IonFlux HT population patch plate. Internal recording solution (110 mM TrisPO4, 28 mM TrisBase, 0.1 mM CaCl2), 2 mM MgCl2, 11 mM EGTA, 4 mM MgATP) was added to the internal recording solution inlet wells on the IonFlux HT patch plate previously loaded with cells and test compounds, and the plate loaded into the IonFlux HT instrument. A protocol was executed on the IonFlux HT to trap the cells, break into the cells, and establish the whole-cell recording configuration; cells were voltage-clamped at a holding potential of −60 mV for the duration of the experiment, all experiments were conducted at room temperature, and the IonFlux HT injection pressure was 8 psi for solution applications. Upon establishing the whole-cell configuration, external recording solution was perfused into the recording chambers for 120 seconds and then 40 μM acetylcholine was applied for 1 second and immediately washed off with external recording solution for 60 seconds. […]

Sequence of human α7 nAChR (P36544 23-502): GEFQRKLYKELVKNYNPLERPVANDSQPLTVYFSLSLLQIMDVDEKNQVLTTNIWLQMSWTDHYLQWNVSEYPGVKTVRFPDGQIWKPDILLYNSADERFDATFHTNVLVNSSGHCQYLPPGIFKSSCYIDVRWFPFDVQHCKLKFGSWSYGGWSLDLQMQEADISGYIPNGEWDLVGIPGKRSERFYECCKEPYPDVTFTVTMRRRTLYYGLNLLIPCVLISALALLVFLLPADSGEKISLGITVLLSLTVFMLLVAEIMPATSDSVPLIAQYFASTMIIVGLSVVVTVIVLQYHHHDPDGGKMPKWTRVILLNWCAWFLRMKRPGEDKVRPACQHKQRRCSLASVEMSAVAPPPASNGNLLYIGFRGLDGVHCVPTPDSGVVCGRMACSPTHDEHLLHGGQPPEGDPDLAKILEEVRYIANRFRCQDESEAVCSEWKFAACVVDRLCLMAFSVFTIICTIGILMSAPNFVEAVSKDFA

Structure (SMILES)	pEC50 (electrophysiology EC50 values)	pEC50 (potency class)
CCOc1ccc([C@H](COC)NC(=O)C2C3Cc4ccccc4C32)cc1 (single isomer, unassigned) [Example 1]	6.12	5.30 to 6.30
CCOc1ccc([C@H](COC)NC(=O)C2C3Cc4ccccc4C32)cc1 (single isomer, unassigned) [Example 2]	7.14	≥ 7.00
CCOc1ccc([C@H](COC)NC(=O)C2C3Oc4ccc(-c5cn(Cc6ccccc6)nn5)cc4C32)cc1 (single isomer, unassigned) [Example 6]	5.96	5.30 to 6.30
O=C(N[C@@H](CO)C1CCCCC1)C1C2COc3ccc(F)cc3C21 (stereo partly drawn) [Example 3, exo-N-[(1R)-1-Cyclohexyl-2-hydroxyethyl]-6-fluoro-1,1a,2,7b-tetrahydrocyclopropa[c][1]benzopyran-1-carboxamide]	5.77	5.30 to 6.30
COc1cc([C@@H](NC(=O)C2C3COc4ccc(F)cc4C32)C(F)(F)F)ccn1 (stereo partly drawn) [Example 4, exo-6-Fluoro-N-[(1R)-2,2,2-trifluoro-1-(2-methoxypyridin-4-yl)ethyl]-1,1a,2,7b-tetrahydrocyclopropa[c][1]benzopyran-1-carboxamide]	5.96	5.30 to 6.30
CCOc1ccc([C@H](COC)NC(=O)C2C3Oc4ccc(-c5nn[nH]n5)cc4C32)cc1 (stereo partly drawn) [Example 5, exo-N-[(1R)-1-(4-Ethoxyphenyl)-2-methoxyethyl]-5-(2H-tetrazol-5-yl)-1a,6b-dihydro-1H-cyclopropa[b][1]benzofuran-1-carboxamide]	5.82	5.30 to 6.30
O=C(NCc1nc(-c2ccccc2)no1)C1C2Oc3ccc(F)cc3C21 (stereo not drawn) [Example 7, exo-5-Fluoro-N-[(3-phenyl-1,2,4-oxadiazol-5-yl)methyl]-1a,6b-dihydro-1H-cyclopropa[b][1]benzofuran-1-carboxamide]	7.30	≥ 7.00
O=C(NC1(c2ccc(F)cc2)COC1)C1C2COc3ccccc3C21 (stereo not drawn) [Example A1, exo-N-[3-(4-fluorophenyl)oxetan-3-yl]-1,1a,2,7b-tetrahydrocyclopropa[c][1]benzopyran-1-carboxamide]	5.82	5.30 to 6.30
O=C(NC1(c2ccc(F)cc2)COC1)C1C2COc3ccc(F)cc3C21 (stereo not drawn) [Example A2, exo-6-fluoro-N-[3-(4-fluorophenyl)oxetan-3-yl]-1,1a,2,7b-tetrahydrocyclopropa[c][1]benzopyran-1-carboxamide]	5.92	5.30 to 6.30

The remaining lines, values ahead:

pEC50 (electrophysiology EC50 values)	pEC50 (potency class)	Structure (SMILES)
5.80	5.30 to 6.30	O=C(N[C@@H]1CCc2c(O)cccc21)C1C2Oc3ccc(F)cc3C21 (mixture of isomers) [Example C10, exo-5-fluoro-N-(4-hydroxy-2,3-dihydro-1H-inden-1-yl)-1a,6b-dihydro-1H-cyclopropa[b][1]benzofuran-1-carboxamide]
5.46	5.30 to 6.30	COC(=O)[C@@H](NC(=O)C1C2Oc3ccc(F)cc3C21)c1cccc(F)c1 (mixture of isomers) [Example C13, methyl 2-(3-fluorophenyl)-2-[(exo-5-fluoro-1a,6b-dihydro-1H-cyclopropa[b][1]benzofuran-1-carbonyl)amino]acetate]
–	5.30 to 6.30	COC(CNC(=O)[C@@H]1[C@H]2COc3ccc(F)cc3[C@H]21)C1CCCCC1 (single isomer, unassigned) [Example A4, exo-N-(2-cyclohexyl-2-methoxyethyl)-6-fluoro-1,1a,2,7b-tetrahydrocyclopropa[c][1]benzopyran-1-carboxamide]
5.66	5.30 to 6.30	CCOc1ccc([C@H](CO)NC(=O)C2C3COc4ccc(F)cc4C32)cn1 (stereo partly drawn) [Example A3, exo-N-[(1R)-1-(6-ethoxypyridin-3-yl)-2-hydroxyethyl]-6-fluoro-1,1a,2,7b-tetrahydrocyclopropa[c][1]benzopyran-1-carboxamide]
5.34	5.30 to 6.30	O=C(NC1(c2ccc(F)cc2)CC(O)C1)C1C2COc3ccccc3C21 (stereo not drawn) [Example A5, exo-N-[1-(4-fluorophenyl)-3-hydroxycyclobutyl]-1,1a,2,7b-tetrahydrocyclopropa[c][1]benzopyran-1-carboxamide]

From patent US20240368109A1, “ALLOSTERIC MODULATORS OF NICOTINIC ACETYLCHOLINE RECEPTORS” (MERCK SHARP & DOHME LLC, priority 2021, published 2024)
